Results reported in PubChem BioAssay (NCI).
Values joined by “and” are separate entries in the source; they are usually repeats but may differ in a detail not shown here. Identical values can stand only once.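 Briefly, cells in 96-well plates were exposed to five compound concentrations for 48 h, and endpoints were estimated by linear interpolation. Here, GI50 denotes the concentration required for 50% inhibition of growth. The concentration for full growth arrest is given as TGI.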

What follows are compounds tested on MDA-MB-468 breast (assay: DTP human tumour cell line panel, 48 h).

SMILES	GI50	TGI
COc1ccc(/C=N/C2=NNC(C)(c3ccccc3O)N2C(Cc2c[nH]c3ccccc23)C(=O)O)cc1 (configuration not stated)	2210 nM	7.34 µM
C=C(C)[C@@H]1CC[C@]2(COC(=O)c3ccccc3C(=O)O)CC[C@]3(C)[C@H](CC[C@@H]4[C@@]5(C)CC[C@H](OC(=O)c6ccccc6C(=O)O)C(C)(C)[C@@H]5CC[C@]43C)[C@@H]12	29800 nM	> 100 µM
COc1ccc2c(ccc3oc([N+](=O)[O-])cc32)c1	121 nM	0.338 µM
CC1(C)CC(C(=O)OCCCCCCCCCCC[P+](c2ccccc2)(c2ccccc2)c2ccccc2)C(C)(C)N1O (configuration not stated)	87.5 nM	0.637 µM
CS(=O)(=O)Nc1cccc(-c2ccc3ncnc(Nc4cncc(Cl)c4)c3c2)c1	133 nM	0.55 µM
CC[C@H](C)C(=O)O[C@H]1C[C@@H](C)C=C2C=C[C@H](C)[C@H](CC[C@@H]3C[C@@H](O)CC(=O)O3)[C@H]21	2030 nM and 2840 nM	14.6 µM and 14.8 µM
O=C(N/N=C\c1ccc([N+](=O)[O-])cc1)c1ccc2nc(-c3ccc(Br)cc3)[nH]c2c1	856 nM	2.06 µM
COC(=O)C(Br)(C(=O)OC)C(Br)C(Br)C(Br)c1ccccc1 (configuration not stated)	1650 nM	3.53 µM
COc1ccc2cn3c4ccc(O)cc4[nH]c(=O)c3c2c1	195 nM	0.678 µM
CCN(CC)CCC(CNc1c(C)cnc2cc(Cl)ccc12)c1ccc(Cl)c(Cl)c1 (configuration not stated)	2060 nM	4.64 µM
O=C(Oc1c(Cl)c(Cl)c(Cl)c(Cl)c1Cl)C1CCCN1C(=O)OCc1ccccc1 (configuration not stated)	2900 nM	12.6 µM
O=C1CCCc2cc3c(cc21)CC1(C3)Cc2cc3c(cc2C1)C(=O)CCC3	2920 nM	62.7 µM
N#CC1=C(N)Oc2c(ccc3cccnc23)C1c1ccccc1 (configuration not stated)	270 nM	0.916 µM
CCN(CC)CCOc1ccccc1-n1c(C)ccc1-c1ccccc1	10000 nM	24.4 µM
CC(=O)OCCC/C(=C/c1cc2ccccc2c2ccccc12)[N+](=O)[O-]	291 nM	1.06 µM
CCC1C[N+]2=C(c3cc(OC)c(OC)cc3CC2)c2c1cc1n2CCc2cc(OC)c(OC)cc2-1 (configuration not stated)	402 nM	5.49 µM
C=CC(=O)N1CCC(CNc2ncnc(N)c2-c2ccc(Oc3ccccc3)cc2)CC1	7290 nM	55.7 µM
NC1=CC(=O)C(=O)c2ccccc21	13200 nM	28.5 µM
CCN1Cc2c(/C=C/c3ccccc3)nc3ccc(OC)cc3c2N(c2cccc(Cl)c2)C1	1900 nM	3.67 µM
COc1ccc(-n2nc(C(=O)NCC(=O)Nc3nc4cc(OC)ccc4s3)c3ccccc3c2=O)cc1	846 nM	
CCN1C(=O)N[C@H]2[C@@H]3NC(=O)c4ccc(Cl)n4[C@@H]3C[C@]21O	229 nM	1.08 µM
NC1=C(/C(N)=N/O)C(c2ccccc2)c2ccc3ccccc3c2O1 (configuration not stated)	2130 nM	> 60 µM
Fc1cccc(-c2nc(-c3c[nH]c4ncccc34)cs2)c1	> 100000 nM	> 100 µM
Nc1nc(N)c2cc(S(=O)(=O)c3ccccc3)ccc2n1	8010 nM	> 100 µM

SMILES	GI50	TGI
O=C(C[n+]1ccn(CC(OCc2ccc(Cl)cc2Cl)c2ccc(Cl)cc2Cl)c1)c1ccc(F)cc1 (configuration not stated)	732 nM	2.2 µM
COc1ccc(/C=C2/C(=O)N(/C=C3\C(=O)Oc4ccccc4C3=O)C(=NC(C)=O)N2C)cc1OC	> 100000 nM	> 100 µM
O=c1[nH]c(=O)n(C2CC(O)C(CO)O2)cc1F (configuration not stated)	250 nM	20.6 µM
Cc1cc(O)cc(-c2nn(C)cc2-c2cc(N3CCOCC3)nc(-c3cccnc3)n2)c1	1310 nM	5.63 µM
COc1ncc(-c2ccc3ncnc(Nc4cccc(Cl)c4)c3c2)cc1NS(C)(=O)=O	211 nM	0.913 µM
CCCCCCNC(=O)Oc1ccc(/C(=C(/C)c2ccccc2)c2ccc(OCCN3CCCCCC3)cc2)cc1	4900 nM	19.5 µM
NCCNc1nc2ccc(F)cc2c2c(=O)c3cc(F)ccc3sc12	1790 nM	3.34 µM
Cc1nc2sc(C(=O)Nc3cccc(Cl)c3C)c(N)c2cc1C(O)c1ccccc1 (configuration not stated)	38.8 nM	16.9 µM
Nc1ncc(-c2ccc3ncnc(N4CCc5cc(F)c(F)cc54)c3c2)cn1	1890 nM	7.79 µM
CN1CCN(c2ccc(NC(=O)c3cncnc3Nc3ccc4c(ccn4Cc4cccc(F)c4)c3)cc2)CC1	1910 nM	6.92 µM
O=C1Nc2cc(-c3ccc(O)cc3)ccc2/C1=C/c1ccc[nH]1	123 nM	0.756 µM
CCc1cccc2c3c(sc12)C(c1ccc(OC)cc1)C(C#N)=C(/N=C/c1ccc(Cl)cc1)O3 (configuration not stated)	1930 nM	6.68 µM
COC(=O)C[C@@H]1CC=CC(=O)/C1=C(O)/C=C/c1ccccc1	666 nM	2.15 µM
COC(=O)[C@]12CC[C@@H](C)[C@H](C)[C@@H]1C1=CC[C@@H]3[C@@]4(C)C(C=O)=C[C@@](C)(COC(=O)c5ccco5)C4=CC[C@@]3(C)[C@]1(C)CC2	54.2 nM	1.94 µM
Nc1n[nH]c2cc(F)c([C@@H]3Nc4c(F)cc5[nH]ncc5c4[C@H]4C5CCC(C5)[C@@H]34)cc12 (some centres not stated)	86 nM	0.25 µM
O=C(Cc1ccc(-c2ccc(OCCN3CCOCC3)cc2)cn1)NCc1ccccc1	24.6 nM	> 3.57 µM
CSc1ccc(/C(=N/N=C(N)N)c2ccc(Cl)cc2)cc1	369 nM	1.5 µM
CN1CCC(n2cnc(-c3ccc(F)cc3)c2-c2ccnc(Nc3ccccc3)n2)CC1	3030 nM	10.4 µM
COc1cc(NC(=O)c2cc3ccccc3cc2O)c(OC)cc1Cl	2510 nM	8.11 µM
Cc1ccc(Nn2c(SCC(=O)Nc3nc(-c4ccccc4)cs3)nc(C)c2C)cc1	1700 nM	6.67 µM
COc1ccc(-c2cncn2-c2ccc(-c3nc4cc(OC)c(OC)c(OC)c4s3)cc2)cc1N	8600 nM	> 100 µM
COc1ccc(C(=O)c2cc(C)c(OC)c(C)c2)c(OC)c1OC(=O)C(Cl)Cl	398 nM	
CCCCc1n(Cc2ccc3ccccc3n2)cc[n+]1Cc1ccc2ccccc2c1	216 nM	0.903 µM
